Reference: publication PMC10136189, “A Tale of 12 Tails: Katanin Severing Activity Affected by Carboxy-Terminal Tail Sequences” (Biomolecules, 2023)

Assays:
human GFP-katanin p60 [1] = target: T1, human GFP-katanin p60 (Homo sapiens, UniProt O75449); experiment: in vitro microtubule severing assay (loss of microtubule polymer); assay type: biochemical; details: for inhibition of katanin severing of microtubules (loss of polymer) / relative potency as inhibitor of katanin binding and severing (comparison in words): inhibitor 0-2 μM; for inhibition of katanin severing of microtubules (loss of polymer): taxol-stabilized rhodamine microtubules, Katanin Activity Buffer pH 7.7, 2 mM ATP, 5 min movies; for relative potency as inhibitor of katanin binding and severing (comparison in words): compared with other CTTs or whole tubulin
T1 construct: made in house; host or cells: Escherichia coli BL21(DE3)
Description: (§1) In this work, we use the in vitro microtubule severing assay to quantitatively characterize the microtubule binding and severing ability of human GFP-katanin p60 in the presence of different CTT sequences. First, we ensure that our human GFP-katanin p60 can robustly and reproducibly sever microtubules and completely remove all polymer within 3–5 min (Figure 1A). As each katanin prep has slightly different activity and the activity can fluctuate (Supplemental Figure S1), we perform control experiments each day to determine the optimal katanin concentration needed and to serve as a control without added inhibitors (Figure 1A). For simplicity we use “katanin” to refer to human GFP-katanin p60 for the remainder of this manuscript.
(§2) Flow chambers with 10 μL channels were made by adhering double-stick tape (3M, St. Paul, MN, USA) to a microscope slide and attaching a silanized coverslip cross-wise. Silanized coverslips were UVO sterilized, cleaned with rinses of acetone, ethanol, 0.1 M KOH, and ddH20 before coating with PlusOne Repel-Silane 2% dimethyldichlorosilane (Cytiva, Marlborough, MA, USA). Samples were made in the chambers by flowing through the chamber using a pipette and filter paper to wick from the other side. For severing assays, we first flowed 5% MAB1864 tubulin YL ½ antibody (Merck-Millipore, Billerica, MA, USA) in PEM-100 for three minutes to provide a binding site for microtubules. Second, we flowed 5% (w/v) Pluronic F127 to act as a polymer brush to block the surface, allowing three minutes for incubation. Next, we flowed 10% rhodamine-labeled microtubules diluted 1:100 (final tubulin concentration 454 nM) and allowed them to adhere for three minutes. During the incubation, an aliquot of katanin was rapidly defrosted from −80 °C and diluted to assay concentration. The chamber was then washed with Katanin Activity Buffer (20 mM HEPES pH 7.7, 10% glycerol, 2 mM MgCl2, 2 mM ATP, 0.025 mg/mL BSA, 0.05% F127, 10 mM dithiothreitol (DTT), 15 mg/mL glucose, 0.15 mg/mL catalase, […]) to remove excess unadhered microtubules. The chamber was then situated on the microscope to find a good field for the assay before flowing Katanin Activity Buffer with GFP-katanin and CTT tails at their respective concentrations.
(§3) Imaging was performed using epifluorescence and total internal reflection (TIRF) with a home-built laser illumination system around a Nikon Ti-E microscope (Nikon USA, Melville, NY, USA). Epifluorescence was used to image rhodamine microtubules in the red channel, and TIRF was used to image GFP-katanin illuminating with a 488 nm laser. Images were collected with a 60x, oil-coupled TIRF objective with a numerical aperture of 1.49 (Nikon USA, Melville, NY, USA). The two-color imaging was performed using shuttering the red channel (400–800 ms exposure) and green channel (70–200 ms exposure) sequentially. The 5 min movies recorded with 3 s intervals using Nikon Elements software (Nikon USA, Melville, NY, USA) driving an Ixon EMCCD camera (Andor, Belfast, Northern Ireland) with a final pixel size of 160 nm. Movie data were saved as a 16-bit time series as nd2 files with metadata. Movies were started recording before the GFP-katanin mixture was flowed while imaging. After the 5 min, a new field of view was imaged to ensure that the loss of microtubule polymer was universal in the chamber and not due to imaging conditions.
(§4) Each of the 64 treatments were run two to three times for replication and for obtaining 15–20 MTs for analysis. Four control chambers were run each day to ensure chamber activity was caused by the respective treatment conditions. […] Next, the concentration needed to sever microtubules within 2–3 min is determined in the presence of ATP. Once the optimal katanin concentration is determined, the assay is repeated in the absence of ATP to again test the imaging conditions in the presence of a GFP-katanin binding to microtubules. […]

human GFP-katanin p60 [2] = target: T1, human GFP-katanin p60; experiment: GFP-katanin binding to microtubules (TIRF intensity) in the severing assay; details: inhibitor 0-2 μM; GFP intensity normalized to same day control without inhibitor; pH 7.7, 2 mM ATP
Description: as §1, §2
as §3, with “Movie data were saved as a 16-bit time series as nd2 files with metadata. Movies were started recording before the GFP-katanin mixture was flowed while imaging. After the 5 min, a new field of view was imaged to ensure that the loss of microtubule polymer was universal in the chamber and not due to imaging conditions.” left out
as §4, with “analysis.” for “analysis. Four control chambers were run each day to ensure chamber activity was caused by the respective treatment conditions.”

T1 sequence (O75449 whole entry): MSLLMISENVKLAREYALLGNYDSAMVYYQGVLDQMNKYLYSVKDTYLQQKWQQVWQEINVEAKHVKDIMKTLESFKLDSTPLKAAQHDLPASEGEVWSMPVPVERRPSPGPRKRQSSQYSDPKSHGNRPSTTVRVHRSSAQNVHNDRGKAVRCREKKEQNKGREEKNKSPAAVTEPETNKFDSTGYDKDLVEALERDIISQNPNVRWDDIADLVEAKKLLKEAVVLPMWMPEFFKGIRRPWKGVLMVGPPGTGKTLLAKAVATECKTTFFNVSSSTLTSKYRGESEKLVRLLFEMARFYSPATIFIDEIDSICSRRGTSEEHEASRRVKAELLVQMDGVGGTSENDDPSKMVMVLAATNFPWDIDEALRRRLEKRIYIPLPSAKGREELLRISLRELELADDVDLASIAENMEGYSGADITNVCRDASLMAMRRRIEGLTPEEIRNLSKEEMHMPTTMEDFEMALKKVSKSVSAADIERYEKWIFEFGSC

inhibition of katanin severing of microtubules (loss of polymer) (human GFP-katanin p60 [1]) | inhibition of GFP-katanin binding to microtubules (human GFP-katanin p60 [2]) | predicted ability to inhibit katanin severing (human GFP-katanin p60 [1]; prediction from hydrophobicity and C-terminal phenylalanine, not tested) | Sequence | relative potency as inhibitor of katanin binding and severing (comparison in words) (human GFP-katanin p60 [1]; listed as beta5 CTT) | relative potency as inhibitor of katanin binding and severing (comparison in words) (human GFP-katanin p60 [1]; listed as beta5 tubulin CTT)
can inhibit | can inhibit | – | A T A DDDDDDDDDD [D10] | – | –
can inhibit | can inhibit | – | A T A EEEEEEEEEE [E10] | – | –

The next lines start with the sequence.

Sequence | inhibition of katanin severing of microtubules (loss of polymer) (human GFP-katanin p60 [1]) | inhibition of GFP-katanin binding to microtubules (human GFP-katanin p60 [2]) | predicted ability to inhibit katanin severing (human GFP-katanin p60 [1]; prediction from hydrophobicity and C-terminal phenylalanine, not tested) | relative potency as inhibitor of katanin binding and severing (comparison in words) (human GFP-katanin p60 [1]; listed as beta5 CTT) | relative potency as inhibitor of katanin binding and severing (comparison in words) (human GFP-katanin p60 [1]; listed as beta5 tubulin CTT)
A T A EEEED F G EE A EEE Y [Beta5-A+Y, artificial beta5 CTT with the last amino acid (A) replaced with a tyrosine] | far less potent as a katanin inhibitor | does not affect katanin binding | – | – | –
A T A EEEED F G EE A EEE A [Beta5 (TUNN/TUBB5)] | severing is inhibited | – | – | most potent inhibitor of the CTTs we tested | better at inhibiting katanin than whole tubulin
A T A EEEED M Y EDDDEE S E A Q G P K [Beta3 (TUBB3)] | cannot inhibit katanin severing | little inhibition of GFP-katanin binding | – | – | –
DSFEEENEGEEF [alpha8, human alpha8 tubulin tail, only alpha tail with a C-terminal F; hydrophobicity calculated, not tested] | – | – | unable to inhibit katanin severing | – | –
A T A DE Q G E F EEEE G EDE A [Beta2 (TUBB2A)] | more beta2a CTT is needed to inhibit | more beta2a CTT is needed to inhibit | – | – | –
